“And” between values parts separate entries of the source, which are not always exact repeats. Equal values may be shown once. Toxic doses and inconclusive results are not listed.
System: P388 leukemia ip, CD2F1 mice, survival T/C
Experiment: NCI In Vivo Anticancer Drug Screen. Data for tumor model P388 Leukemia (intraperitoneal) in CD2F1 (CDF1) mice
Conditions: endpoint: median survival time, higher = longer survival
How it was run: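 Mice carrying the transplanted tumor received test compound or vehicle. Survival was recorded in each group, and the value is the treated-group measurement divided by that of the vehicle-treated control group.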

[1] = dose: 50.0 mg/kg/injection, schedule: Q01DX009 (ip), vehicle: saline with Tween-80
[2] = dose: 100.0 mg/kg/injection, schedule: Q01DX009 (ip), vehicle: saline with Tween-80

CNC(=O)Nc1cccc(C2(C)OCCS2)c1 (stereo not given)
T/C (dose: 60.0 mg/kg/injection, schedule: Q01DX005 (ip), vehicle: saline with Tween-80): 100 % of control
T/C (dose: 120.0 mg/kg/injection, schedule: Q01DX005 (ip), vehicle: saline with Tween-80): 94 % of control
T/C (dose: 240.0 mg/kg/injection, schedule: Q01DX005 (ip), vehicle: saline with Tween-80): 99 % of control

COc1cc(C2c3cc4c(cc3[C@@H](OC3OC5CO[C@@H](c6cccs6)OC5C(O)C3O)[C@H]3COC(=O)C23)OCO4)cc(OC)c1OC (stereo not given in full)
T/C (dose: 2.0 mg/kg/injection, schedule: Q01DX005 (ip), vehicle: saline): 123 % of control
T/C (dose: 8.0 mg/kg/injection, schedule: Q01DX005 (ip), vehicle: saline): 155 % of control
T/C (dose: 16.0 mg/kg/injection, schedule: Q01DX005 (ip), vehicle: saline): 175 % of control and 185 % of control
T/C (dose: 32.0 mg/kg/injection, schedule: Q01DX005 (ip), vehicle: saline): 203 % of control
T/C (dose: 64.0 mg/kg/injection, schedule: Q01DX005 (ip), vehicle: saline): 225 % of control

COc1cccc2c1C(=O)c1c(O)c3c(c(O)c1C2=O)C[C@@](O)(C(C)=O)C[C@@H]3OC(=O)CCN
T/C (dose: 0.78 mg/kg/injection, schedule: Q01DX009 (ip), vehicle: water): 112 % of control
T/C (dose: 1.56 mg/kg/injection, schedule: Q01DX009 (ip), vehicle: water): 110 % of control
T/C (dose: 3.13 mg/kg/injection, schedule: Q01DX009 (ip), vehicle: water): 118 % of control
T/C (dose: 8.33 mg/kg/injection, schedule: Q01DX009 (ip), vehicle: water): 123 % of control
T/C (dose: 12.5 mg/kg/injection, schedule: Q01DX009 (ip), vehicle: water): 120 % of control
T/C (dose: 18.8 mg/kg/injection, schedule: Q01DX009 (ip), vehicle: water): 101 % of control
T/C (dose: 25.0 mg/kg/injection, schedule: Q01DX009 (ip), vehicle: water): 118 % of control

O=C(CCl)N/N=C/c1ccccc1
T/C [1]: 106 % of control
T/C (dose: 50.0 mg/kg/injection, schedule: Q01DX009 (ip), vehicle: saline): 97 % of control
T/C [2]: 107 % of control
T/C (dose: 100.0 mg/kg/injection, schedule: Q01DX009 (ip), vehicle: saline): 95 % of control
T/C (dose: 200.0 mg/kg/injection, schedule: Q01DX009 (ip), vehicle: saline with Tween-80): 111 % of control
T/C (dose: 200.0 mg/kg/injection, schedule: Q01DX009 (ip), vehicle: saline): 96 % of control

O=S1C2CCC(Br)C1CCC2Br (stereo not given)
T/C (dose: 0.39 mg/kg/injection, schedule: Q04DX002 (ip), vehicle: saline + alcohol): 105 % of control
T/C (dose: 0.78 mg/kg/injection, schedule: Q04DX002 (ip), vehicle: saline + alcohol): 100 % of control
T/C (dose: 1.56 mg/kg/injection, schedule: Q04DX002 (ip), vehicle: saline + alcohol): 101 % of control

CC(C)=CCC/C(C)=C\CN(C)C
T/C (dose: 6.25 mg/kg/injection, schedule: Q04DX002 (ip), vehicle: saline with Tween-80): 100 % of control
T/C (dose: 12.5 mg/kg/injection, schedule: Q04DX002 (ip), vehicle: saline with Tween-80): 103 % of control
T/C (dose: 25.0 mg/kg/injection, schedule: Q04DX002 (ip), vehicle: saline with Tween-80): 94 % of control

CC(C)Cc1cc(C(F)(F)F)nc(NNc2nc(CC(C)C)cc(C(F)(F)F)n2)n1
T/C (dose: 50.0 mg/kg/injection, schedule: Q01DX009 (ip), vehicle: Klucel (hydroxypropylcellulose) (HPC)): 90 % of control
T/C (dose: 100.0 mg/kg/injection, schedule: Q01DX009 (ip), vehicle: Klucel (hydroxypropylcellulose) (HPC)): 87 % of control

CC(=O)NCc1cc(C)c(CC#N)cc1CC#N
T/C (dose: 6.25 mg/kg/injection, schedule: Q01DX009 (ip), vehicle: distilled water + Tween-80): 100 % of control
T/C (dose: 12.5 mg/kg/injection, schedule: Q01DX009 (ip), vehicle: distilled water + Tween-80): 89 % of control and 91 % of control
T/C (dose: 25.0 mg/kg/injection, schedule: Q01DX009 (ip), vehicle: distilled water + Tween-80): 103 % of control
T/C (dose: 50.0 mg/kg/injection, schedule: Q01DX009 (ip), vehicle: distilled water + Tween-80): 94 % of control
T/C (dose: 100.0 mg/kg/injection, schedule: Q01DX009 (ip), vehicle: distilled water + Tween-80): 94 % of control

CCOC(=O)C12CCOC1(OC)NC(=O)C=C2C(=O)OC (stereo not given)
T/C (dose: 100.0 mg/kg/injection, schedule: Q04DX003 (ip), vehicle: Klucel (hydroxypropylcellulose) (HPC)): 110 % of control
T/C (dose: 200.0 mg/kg/injection, schedule: Q04DX003 (ip), vehicle: Klucel (hydroxypropylcellulose) (HPC)): 110 % of control
T/C (dose: 400.0 mg/kg/injection, schedule: Q04DX003 (ip), vehicle: Klucel (hydroxypropylcellulose) (HPC)): 118 % of control

N#CC(C(=O)O)c1ccc([N+](=O)[O-])cc1 (stereo not given)
T/C (dose: 50.0 mg/kg/injection, schedule: Q01DX005 (ip), vehicle: Klucel (hydroxypropylcellulose) (HPC)): 105 % of control
T/C (dose: 100.0 mg/kg/injection, schedule: Q01DX005 (ip), vehicle: Klucel (hydroxypropylcellulose) (HPC)): 96 % of control
T/C (dose: 200.0 mg/kg/injection, schedule: Q01DX005 (ip), vehicle: Klucel (hydroxypropylcellulose) (HPC)): 99 % of control

CCOc1nc(N)nc(C)c1N=Nc1cccc([N+](=O)[O-])c1
T/C (dose: 60.0 mg/kg/injection, schedule: Q01DX005 (ip), vehicle: Klucel (hydroxypropylcellulose) (HPC)): 100 % of control
T/C (dose: 120.0 mg/kg/injection, schedule: Q01DX005 (ip), vehicle: Klucel (hydroxypropylcellulose) (HPC)): 94 % of control
T/C (dose: 240.0 mg/kg/injection, schedule: Q01DX005 (ip), vehicle: Klucel (hydroxypropylcellulose) (HPC)): 103 % of control

Cc1noc(NS(=O)(=O)c2ccc(N=Nc3cc(N=Nc4ccc(S(=O)(=O)Nc5onc(C)c5C)cc4)c4c(NC(=O)C(Cl)Cl)cccc4c3OC(=O)C(Cl)Cl)cc2)c1C (tested in a mixture with another compound)
T/C [1]: 100 % of control and 106 % of control
T/C [2]: 104 % of control and 106 % of control

From PubChem BioAssay AID330 (DTP/NCI, 2004)
